The values that follow come from US11214540B2, “Compositions for treating neurodegenerative diseases” (COGNITION THERAPEUTICS, INC., priority 2017, dated 2022).

A short description of the first series: log P.
Settings: not given
It counts as physicochemical. The source says: The term “log P” refers to the partition coefficient of a compound. The partition coefficient is the ratio of concentrations of un-ionized compound in each of two solution phases, for example, octanol and water. To measure the partition coefficient of ionizable solute compounds, the pH of the aqueous phase is adjusted such that the predominant form of the compound is un-ionized. The logarithm of the ratio of concentrations of the un-ionized solute compound in the solvents is called log P. The log P is a measure of lipophilicity. For example, log Poct/wat=log([solute]octanol/[solute]un-ionized,water).
Combined Results for particular compounds described herein, with respect to log P, membrane trafficking (uM), sigma-2 receptor affinity, sigma-1 receptor affinity microsomal stability in mouse liver microsomes (MLM) (t1/2, min), t1/2 normalized to CT)10914 and in vitro toxicity potassium channel hERG (IC50, nM) are provided in Table 1: […]
For the compound `CC(C)=C[C@@H](CC(C)(C)c1ccc(C(F)(F)F)cc1)N1CCC(C)(O)CC1` [Compound 266], the log P (in general, a log measure of how a compound divides between an organic and an aqueous phase) is 5.13.
Turning to `CCOC(=O)C1CCN(C(C=C(C)C)CC(C)(C)c2ccc(F)cc2)CC1` (stereo not drawn) [Compound 267], the “log P” value worked out at 5.37.
With `CCOC(=O)C1CCN(C(C)CC(C)(C)c2ccc(Cl)cc2)CC1` (stereo not drawn) [Compound 268], the “log P” value is listed as 4.83.
For `COc1cc(CCC(C)(C)N2Cc3cccc(C(=O)N4CCN(C(=O)[C@H](C)N)CC4)c3C2)ccc1O` [Compound 269], the “log P” value came out at 2.2.
Turning to `COc1cc(CCC(C)(C)N2Cc3cccc(C(=O)N4CCN(C(=O)CN)CC4)c3C2)ccc1O` [Compound 270], the “log P” value is reported as 1.81.
As to `COc1cc(CCC(C)(C)N2Cc3cccc(C(=O)N4CCN(C(=O)C(Cc5ccccc5)N(C)C)CC4)c3C2)ccc1O` (stereo not drawn) [Compound 271], the “log P” value amounted to 4.85.
With `COC(=O)N1CCN(C(=O)c2cccc3c2CN(C(C)(C)CCc2ccc(O)c(OC)c2)C3)CC1` [Compound 272], the “log P” value is recorded as 3.35.
Regarding `COc1cc(CCC(C)(C)N2Cc3cccc(C(=O)N4CCN(C(=O)[C@@H]5CCCN5C)CC4)c3C2)ccc1O` [Compound 274], the “log P” value was 3.24.
Turning to `COC[C@@H]1CCCN1C(C=C(C)C)CC(C)(C)c1ccc(C(F)(F)F)cc1` (stereo partly drawn) [Compound 275], the “log P” value came to 5.95.
As for `COC[C@@H]1CCCN1C(C)CC(C)(C)c1ccc(C(F)(F)F)cc1` (stereo partly drawn) [Compound 276], the “log P” value is on record as 4.95.
Regarding `CCOC(=O)C1CCN(C(C)CC(C)(C)c2ccc(C(F)(F)F)cc2)CC1` (stereo not drawn) [Compound 277], the “log P” value turned out to be 5.11.
On to `CCOC(=O)C1CCN(C(C=C(C)C)CC(C)(C)c2ccccc2)CC1` (stereo not drawn) [Compound 278], for which the “log P” value was 5.23.
With `COc1cc(CCC(C)(C)N2Cc3cccc(C(=O)N4CCN(C(=O)CNC(C)=O)CC4)c3C2)ccc1O` [Compound 279], the log partition coefficient (log P) turned out to be 1.63.
Same read-out and setting: the value for `COc1cc(CCC(C)(C)N2Cc3cccc(C(=O)N4CCN(C(=O)[C@@H](Cc5ccccc5)NC(C)=O)CC4)c3C2)ccc1O` [Compound 280] was 3.85.
On to `COc1cc(CCC(C)(C)N2Cc3cccc(C(=O)N4CCN(C(=O)[C@H](C)O)CC4)c3C2)ccc1O` [Compound 281], for which the “log P” value stood at 2.48.
For the compound `COc1cc(CCC(C)(C)N2Cc3cccc(C(=O)N4CCN(C(=O)[C@@H]5CCCN5C(C)=O)CC4)c3C2)ccc1O` [Compound 282], the “log P” value worked out at 2.47.
Consider `CC(C)(CCN1CCC(CO)CC1)c1ccc(Cl)cc1` [Compound 283], for which the “log P” value is given as 3.62.
Same read-out and setting: the value for `CC(C)(CCN1CCC(CCO)CC1)c1ccc(Cl)cc1` [Compound 284] was 3.98.
Same read-out and setting: the same measure for `CC(C)(CCN1CCC(O)(c2ccccc2)CC1)c1ccc(Cl)cc1` [Compound 285]: 4.81; for `CCOC(=O)C1CCN(C(C=C(C)C)CC(C)(C)c2ccc(C(F)(F)F)cc2)CC1` (stereo not drawn) [Compound 286]: 6.11.
On the same count and under the same terms, the same measure for `CCOC(=O)C1CCN(CCC(C)(C)c2ccc(Cl)cc2)CC1` [Compound 287]: 4.41.
Take `CC(C)(CCN1CC[C@@H](O)C1)c1ccc(Cl)cc1` [Compound 288]: the “log P” value was 3.1.
For `COC[C@@H]1CCCN1CCC(C)(C)c1ccc(Cl)cc1` [Compound 289], the “log P” value is given as 4.26.
For the compound `COC(=O)[C@H]1CCCN1CCC(C)(C)c1ccc(Cl)cc1` [Compound 290], the “log P” value came out at 4.08.
`COC(=O)C1CCN(CCC(C)(C)c2ccc(Cl)cc2)CC1` [Compound 291]: the “log P” value turned out to be 4.06.
Consider `COC(=O)[C@@H]1CCCN1CCC(C)(C)c1ccccc1` [Compound 293], for which the “log P” value stood at 3.48.
Take `COC(=O)[C@H]1CCCN1CCC(C)(C)c1ccccc1` [Compound 294]: the “log P” value stood at 3.48.
As to `COC(=O)C1CCN(CCC(C)(C)c2ccccc2)CC1` [Compound 295], the “log P” value is given as 3.45.
The same measure, in the same setting: the same measure for `CC1(O)CCN(CCC(C)(C)c2ccccc2)CC1` [Compound 296]: 2.83; for `CC(C)(CCN1CCC(C)(c2ccccc2)CC1)c1ccccc1` [Compound 297]: 5.81; for `COC[C@H]1CCCN1CCC(C)(C)c1ccc(Cl)cc1` [Compound 298]: 4.26.
Turning to `CCOC(=O)C1CCN(CCC(C)(C)c2ccccc2)CC1` [Compound 299], the “log P” value was determined as 3.81.
The same measure, in the same setting: the value for `COC[C@H]1CCCN1CCC(C)(C)c1ccccc1` [Compound 300] was 3.65.
For the compound `CC(C)(CCN1CC[C@@H](O)C1)c1ccccc1` [Compound 301], the “log P” value worked out at 2.49.
Take `COC[C@@H]1CCCN1CCC(C)(C)c1ccccc1` [Compound 302]: the “log P” value was determined as 3.65.
Regarding `COCCOCCC1CCN(CCC(C)(C)c2ccc(Cl)cc2)CC1` [Compound 303], the lipophilicity (log P) was determined as 4.58.
With `CC(C)(CCN1CCC(CCO)CC1)c1ccccc1` [Compound 304], the “log P” value is reported as 3.38.
As to `COc1cc(CCC(C)(C)N2Cc3cccc(C(=O)N4CCN(C(=O)OCCOC(C)=O)CC4)c3C2)ccc1O` [Compound 305], the “log P” value amounted to 3.1.
As to `CC(C)(CCN1CCC(CO)CC1)c1ccccc1` [Compound 308], the “log P” value was 3.01.
As for `COc1cc(CCC(C)(C)N2Cc3cccc(C(=O)N4CCN(C(=O)OCc5oc(=O)oc5C)CC4)c3C2)ccc1O` [Compound 309], the “log P” value is listed as 3.96.
As to `COC1CCN(CCC(C)(C)c2ccccc2)CC1` [Compound 310], the “log P” value worked out at 3.2.
For `CCOC(=O)C1CCN(CCC(C)(C)c2ccc(C(F)(F)F)cc2)CC1` [Compound 311], the “log P” value was 4.69.
`COC[C@H]1CCCN1CCC(C)(C)c1ccc(C(F)(F)F)cc1` [Compound 312]: the log partition coefficient (log P) worked out at 4.53.
On the same count and under the same terms, the same measure for `CC(C)(CCN1CCC(C2CCOCC2)CC1)c1ccccc1` [Compound 313]: 4.28.
Take `COCCOCCC1CCN(CCC(C)(C)c2ccc(C(F)(F)F)cc2)CC1` [Compound 314]: the “log P” value was found to be 4.85.
For the compound `CC(C)(CCN1CC[C@@H](O)C1)c1ccc(C(F)(F)F)cc1` [Compound 315], the “log P” value is given as 3.37.
With `CC(C)(CCN1CCC(C)(c2ccccc2)CC1)c1ccc(F)cc1` [Compound 316], the “log P” value came to 4.34.
As to `COC[C@H]1CCCN1CCC(C)(C)c1ccc(F)cc1` [Compound 318], the “log P” value was found to be 3.8.
`COC[C@@H]1CCCN1CCC(C)(C)c1ccc(F)cc1` [Compound 319]: the “log P” value was determined as 3.8.
On to `COC(=O)C1CCCN1CCC(C)(C)c1ccc(F)cc1` (stereo not drawn) [Compound 320], for which the “log P” value came to 3.62.
Consider `COCCCC1CCN(CCC(C)(C)c2ccc(F)cc2)CC1` [Compound 321], for which the “log P” value worked out at 4.61.
On to `CCOC(=O)C1CCN(CCC(C)(C)c2ccc(F)cc2)CC1` [Compound 322], for which the “log P” value was determined as 3.95.
As for `C[C@@H]1CCN(CCC(C)(C)c2ccc(F)cc2)C1` [Compound 323], the “log P” value was found to be 4.15.
In the case of `COCCCC1CCN(CCC(C)(C)c2ccc(Cl)cc2)CC1` [Compound 324], the “log P” value was 5.07.
`COCCCC1CCN(CCC(C)(C)c2ccccc2)CC1` [Compound 325]: the “log P” value turned out to be 4.47.
For `COC(=O)C1CCN(CCC(C)(C)c2ccc(F)cc2)CC1` [Compound 326], the “log P” value is reported as 3.6.

The same series, now with this note: octanol/water.
As for `COC1CCN(CCC(C)(C)c2ccc(C(F)(F)F)cc2)CC1` [Example 191], the logP (in general, a log measure of how a compound divides between an organic and an aqueous phase) came to 4.07.
Same read-out and setting: the same measure for `CC(C)(CCN1CCC(CO)CC1)c1ccc(C(F)(F)F)cc1` [Example 306]: 3.89.
Still for that read-out and setting: the same measure for `CC(C)(CCN1CCC(O)(c2ccccc2)CC1)c1ccc(C(F)(F)F)cc1` [Example 307]: 5.08.
Compound `COC[C@@H]1CCCN1CCC(C)(C)c1ccc(C(F)(F)F)cc1` [Example 317] displayed a logP of 4.53.
